Assay results taken from patent US10278999B2, “Synthesis of Nuxia oppositifolia nanoparticles” (KING SAUD UNIVERSITY, priority 2017, dated 2019).

Tests used:
Assay in all cases: Antimicrobial activity, agar diffusion technique
Type in all cases: cell-based
Conditions in all cases: mean ± S.D. beyond well diameter (6 mm), 100 μl of samples
[1] = tested on: Streptococcus pyogenes (RCMB 010015)
Experimental: (§1) The antimicrobial effect of N. oppositifolia nanoparticles synthesized according to Example 1 were evaluated against gram positive bacteria, gram negative bacteria, as well as fungi.
(§2) The antimicrobial effect of N. oppositifolia nanoparticles synthesized according to Example 2 were evaluated against gram positive bacteria, gram negative bacteria, as well as fungi.

[2] = tested on: Staphylococcus epidermidis (RCMB 010024)
Experimental: as §1, §2

[3] = tested on: Geotricum candidum (RCMB 05097)
Experimental: as §1, §2

[4] = tested on: Candida albicans (RCMB 05036)
Experimental: as §1, §2

[5] = tested on: Absidia corymbifera (RCMB 02564)
Experimental: as §1, §2

[6] = tested on: Proteous vulgaris (RCMB 010085)
Experimental: as §1, §2

[7] = tested on: Salmonella enteritidis (RCMB 010084)
Experimental: as §1, §2

[8] = tested on: Klebsiella pneumoniae (RCMB 0010093)
Experimental: as §1, §2

## CC1(C)S[C@@H]2[C@H](NC(=O)[C@H](N)c3ccccc3)C(=O)N2[C@H]1C(=O)O [Ampicillin]
[1]
  Zone of Inhibition (±SD): 26.3 ± 0.34 mm
[2]
  Zone of Inhibition (±SD): 25.0 ± 0.18 mm

## C[C@@H]1[C@H](O)[C@@H](C)/C=C/C=C/C=C/C=C/C=C/C=C/C=C/[C@H](O[C@@H]2O[C@H](C)[C@@H](O)[C@H](N)[C@@H]2O)C[C@@H]2O[C@](O)(C[C@@H](O)C[C@@H](O)[C@H](O)CC[C@@H](O)C[C@@H](O)CC(=O)O[C@H]1C)C[C@H](O)[C@H]2C(=O)O [Amphotericin B]
[3]
  Zone of Inhibition (±SD): 27.0 ± 0.20 mm
[4]
  Zone of Inhibition (±SD): 25.7 ± 0.10 mm
[5]
  Zone of Inhibition (±SD): 23.0 ± 0.10 mm

## Gentamycin
[6]
  Zone of Inhibition (±SD): 23.4 ± 0.30 mm
[7]
  Zone of Inhibition (±SD): 25.2 ± 0.18 mm
[8]
  Zone of Inhibition (±SD): 26.4 ± 0.15 mm
